Entries after “also recorded” stand apart in the source; their conditions may differ. Counter-ions that a name gives are not always drawn. Like-named read-outs stand apart in the source and are kept apart here.
Assays:
irritable bowel syndrome = test: patient treatment, irritable bowel syndrome; assay type: in vivo, human; details: person; for pain: two months
mast cell = details: effective dose causing 20% secretion; cited from earlier work
rat mucosal mast cell = test: inhibition of rat mucosal mast cell degranulation in vitro (histamine release); assay type: cell-based; details: read-out: ID20 for histamine release
Excerpt: It is not necessary to the operability of the present invention that each member of the foregoing classes inhibits mast cell degranulation to the same extent. The ability of a particular substance to inhibit mast cell degranulation can be readily determined empirically. Thus, mast cells from rats (pieces of small intestine) or humans (intestinal biopsies) can be obtained; otherwise, RBL cells or immortalized human mucosal-like mast cells (HMC-1) are kept in culture. Any of these cells then are exposed to various concentrations of a putative inhibitory compound, to allow for action by the putative inhibitor at critical sites. Efficacy with respect to inhibition of mast cell degranulation then is ascertained; that is, the intestinal biopsies, explants or cultured cells thus treated are used as such or washed free of unbound test compound before exposure to a stimulus known to induce mast cell degranulation. A compound suitable for use in accordance with the present invention is recognized as one that prevents the stimulus from causing degranulation, presumably by binding to specific receptors or by inactivating a crucial step in the degranulation process.
A pharmaceutically effective dose for a given mast cell degranulation-blocking agent can be approximated by its ID20, which is the dose necessary to cause 20% inhibition in mast cells when applied to mast cells stimulated in vitro.

[1] = tested on: gastrointestinal mast cells; details: cited from earlier work
intracranial mast cells = details: cited from earlier work
abdominal migraine [2] = test: patient treatment, abdominal migraine; assay type: in vivo, human; details: person; 3 μg/day subcutaneous, four months
Method: A patient with a two-year history of abdominal migraine, experienced constant gastrointestinal pain which was considerably worse immediately premenstrually. After treatment with the Gn-RH analogue LUPRON (3 μg/day subcutaneous injection) for four months, they were symptom-free.

PP2C = details: cited from earlier work
PP2B = details: cited from earlier work
PP2A = details: cited from earlier work
Type 1 phosphatase (PP1) = details: cited from earlier work
[3] = tested on: rat mast cell protease II (RMCPII); test: rat-immobilization assay, stress model, intestinal RMCPII; assay type: in vivo; details: for rat intestinal RMCPII, pre-treated w/ ketotifen: 1 mg/kg i.p. twice daily for four days before immobilization, n = 3
Method: An assay by which efficacy of a mast cell degranulation-blocking agent can be tested systemically in the present context is the rat-immobilization assay, […] After the immobilization, a specific gastrointestinal mast cell mediator, rat mast cell protease II (RMCPII), is measured. This assay is accepted as a non-ulcerogenic model of stress. See Williams et al., Am. J. PhysioI. 253:582-86 (1987).
Ketotifen was administered intraperitoneally to rats (1 mg/kg body weight, twice daily) for four days prior to immobilization.

[4] = tested on: rat mucosal mast cell (MMC); test: RMCPII release from rat ileal explants, toxin A; assay type: cell-based; details: for RMCPII released, Ketotifen + Toxin A: ketotifen 1 mg/kg twice daily intragastrically 4 days, toxin A 5 μg/ml, n = 6
Method: The following experiment was performed in order to evaluate rat mucosal mast cell (MMC) degranulation by measuring rat mast cell protease II (RMCPII), a specific marker for MMC, and by electron microscopy.
Rats were treated intragastrically for four (4) days with either 0.5 ml of saline containing ketotifen (1 mg/kg twice daily) or saline alone. On day five, the animals were euthanized, ileum was removed and ileal explants were placed in organ culture. The explants were incubated at 37° C. in a medium containing either 5 μg/ml of toxin A in 0.01 ml of 50 mM Tris buffer, or buffer alone. Aliquots (50 μl) of medium were collected at specified times and RMCPII levels were determined. Results are expressed in Table 4 as nanograms of RMCPII released per milligram of tissue wet weight (Pothoulakis et al., Gastroenterology 105:701-707, 1993).

[5] = tested on: rat basophilic leukemia (RBL) cells; details: Kouretas et al. 1991; cited from earlier work
abdominal migraine [6] = details: in vivo; cited from earlier work
[7] = inhibitory dose causing 20% inhibition, rat mucosal mast cells in vitro

## OCCOCCN1CCN(C(c2ccccc2)c2ccc(Cl)cc2)CC1 (centres unmarked) [hydroxyzine pamoate]
Irritable bowel syndrome; 50 mg/day, 4 months
  professional activities: able to resume their professional activities
  symptoms of irritable bowel syndrome: noticeable improvement of their symptoms

## CN(C)CCC(c1ccc(Cl)cc1)c1ccccn1 (centres unmarked) [Clorphenyramine]
Mast cell
  ED20 for Histamine Release: 10^-3 M

## OCCOCCN1CCN(C(c2ccccc2)c2ccc(Cl)cc2)CC1 (centres unmarked) [hydroxyzine hydrochloride]
Irritable bowel syndrome; 50 mg/day, three months
  gastrointestinal discomfort: almost completely eliminated
  professional and family responsibilities: able to resume their professional and family responsibilities
Irritable bowel syndrome; attempted withdrawal
  symptoms of irritable bowel syndrome on withdrawal: marked increase in symptoms of irritable bowel syndrome
Irritable bowel syndrome; resumed medication
  symptoms on resuming the medication: symptoms disappeared

## CNCCc1c[nH]cn1 [N^α -methyl histamine]
Rat mucosal mast cell; Rattus norvegicus
  IC20: 100 nM

## O=C(O)c1cc(=O)c2c(OCC(O)COc3cccc4oc(C(=O)O)cc(=O)c34)cccc2o1 [disodium cromoglycate]
[1]
  inhibition of gastrointestinal / mucosal mast cells: the former but not the latter are inhibited; also recorded: do not have an inhibitory effect specifically on mucosal mast cells
Intracranial mast cells
  inhibition of intracranial mast cells: inhibited

## CCNC(=O)[C@@H]1CCCN1C(=O)[C@H](CCCNC(=N)N)NC(=O)[C@H](CC(C)C)NC(=O)[C@@H](CC(C)C)NC(=O)[C@H](Cc1ccc(O)cc1)NC(=O)[C@H](CO)NC(=O)[C@H](Cc1c[nH]c2ccccc12)NC(=O)[C@H](Cc1c[nH]cn1)NC(=O)[C@@H]1CCC(=O)N1 [LUPRON, leuprolide acetate]
Abdominal migraine [2]
  symptoms of abdominal migraine: symptom-free

## C=C1[C@@H](O)[C@@H]2O[C@]3(CC[C@H](/C=C/[C@@H](C)[C@@H]4CC(C)=C[C@@]5(O[C@H](C[C@@](C)(O)C(=O)O)CC[C@H]5O)O4)O3)CC[C@H]2O[C@@H]1[C@@H](O)C[C@H](C)[C@H]1O[C@@]2(CCCCO2)CC[C@H]1C [okadaic acid]
PP2C
  effect on PP2C: insensitive
PP2B
  effect on PP2B: inhibited
PP2A
  effect on PP2A: inhibited
Type 1 phosphatase (PP1)
  effect on PP1: inactivated

## CN1CCC(=C2c3ccccc3CC(=O)c3sccc32)CC1 [Ketotifen]
[3]; 60 min
  rat intestinal RMCPII, pre-treated w/ ketotifen: 0.5 ng/mL
[3]; 120 min, p < 0.001 vs. immobilized
  rat intestinal RMCPII, pre-treated w/ ketotifen: 0.8 ng/mL
[3]; rat-immobilization assay
  secretion of RMCPII during stress (in words): preventing secretion of RMCPII
Irritable bowel syndrome; 4 mg/day
  pain: their pain subsided significantly
Rat mucosal mast cell; Rattus norvegicus
  IC20: 10000 nM
[4]; 30 min
  RMCPII released, Ketotifen + Toxin A: 2.9 ± 1.0 nanograms of RMCPII released p
[4]; 60 min, p < 0.05 vs Toxin A
  RMCPII released, Ketotifen + Toxin A: 3.0 ± 1.1 nanograms of RMCPII released p
[4]; 120 min, p < 0.01 vs Toxin A
  RMCPII released, Ketotifen + Toxin A: 4.2 ± 0.9 nanograms of RMCPII released p
[4]; 180 min, p < 0.01 vs Toxin A
  RMCPII released, Ketotifen + Toxin A: 6.7 ± 1.9 nanograms of RMCPII released p
[4]; toxin A stimulus
  release of RMCPII from rat ileal explants (in words): effectively inhibits the release of RMCPII

## CN(C)CCOC(c1ccccc1)c1ccccc1 [Diphenhydramine]
Mast cell
  ED20 for Histamine Release: 10^-3 M

## CN1CCC(=C2c3ccccc3CCc3cccnc32)CC1 [Azatadine]
Rat mucosal mast cell; [7]
  IC20: 100 nM

## CC/C(=C(\c1ccccc1)c1ccc(OCCN(C)C)cc1)c1ccccc1 [tamoxifen citrate]
Irritable bowel syndrome; 40 mg/day orally
  pain: substantially eliminated their pain

## CC(=O)[C@H]1CC[C@H]2[C@@H]3CCC4=CC(=O)CC[C@]4(C)[C@H]3CC[C@]12C [progesterone]
[5]
  binding to RBL cells: bind

## O=c1[nH]c2ccccc2n1CCCN1CCN(C(c2ccccc2)c2ccccc2)CC1 [Oxatomide]
Rat mucosal mast cell; [7]
  IC20: 100 nM

## CC(C)NCC(O)COc1cccc2ccccc12 (centres unmarked) [propranolol]
Abdominal migraine [6]
  effect in abdominal migraine: seem not to work

## CC(CN1c2ccccc2Sc2ccccc21)N(C)C (centres unmarked) [Promethazine]
Mast cell
  ED20 for Histamine Release: 10^-4 M

From patent US5648355A, “Method of treatment of endogenous, painful gastrointestinal conditions of non-inflammatory, non-ulcerative origin” (priority 1994, dated 1997)
